41 compounds from US6608082B1, “Treatment of erectile dysfunction using isoquinoline compound melanocortin receptor ligands” (Lion Bioscience AG, priority 1998, dated 2003) can be followed below.

Where two headings read alike, the source gives them in different places.

One assay has as its target T1, MCR-1 (Homo sapiens, UniProt Q01726).
T1 construct: expressed in transfected cells; host or cells: HEK 293
The assay can be described thus: Melanocortin receptor binding assay, competition with 125I-HP 467, HEK 293 cells expressing hMCR-1. To be noted: for IC50: read-out: MC-1 IC50; for % Disp. MC-1 10 μM: displacement of 125I-HP 467 at 10 μM isoquinoline compound. Summed up:
(§1)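 Intact-cell competition binding, 2.5 hr at 37 °C, in PBS/10% calf serum/1 mM CaCl2; hMCR-4 cells at 4×10^3 per tube, hMCR-1 cells at 2×10^4 per tube. Filtration on BSA/CaCl2-soaked GF/B, cold 50 mM Tris pH 7.4 washes, scintillation count.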

A further assay deals with T2, MCR-4 (Homo sapiens, UniProt P32245).
T2 construct: expressed in transfected cells; host or cells: HEK 293
The assay is described as follows: Melanocortin receptor binding assay, competition with 125I-HP 467, HEK 293 cells expressing hMCR-4. To be noted: for IC50: read-out: MC-4 IC50. The procedure, abridged: as §1

The mark [1] stands for this setting: inhibition of binding of 125I-HP 467, HEK 293 cells expressing MCR-1.
[2] abbreviates: inhibition of binding of 125I-HP 467, HEK 293 cells expressing MCR-4.
[3] abbreviates: inhibition of binding of 125I-HP 467, HEK 293 cells expressing MCR-1, TRG 2414 library.
Setting [4] is: inhibition of binding of 125I-HP 467, HEK 293 cells expressing MCR-4, TRG 2414 library.
The mark [5] stands for this setting: TRG 2414 library, inhibition of binding of 125I-HP 467, HEK 293 cells expressing MCR-1.
Setting [6] is: TRG 2414 library, inhibition of binding of 125I-HP 467, HEK 293 cells expressing MCR-4.
The mark [7] stands for this setting: TRG 2406 and TRG 2407 libraries, inhibition of binding of 125I-HP 467.
Setting [8] is: TRG 2408 and TRG 2409 libraries, inhibition of 125I-HP 467 binding.

T1 sequence (Q01726 whole entry): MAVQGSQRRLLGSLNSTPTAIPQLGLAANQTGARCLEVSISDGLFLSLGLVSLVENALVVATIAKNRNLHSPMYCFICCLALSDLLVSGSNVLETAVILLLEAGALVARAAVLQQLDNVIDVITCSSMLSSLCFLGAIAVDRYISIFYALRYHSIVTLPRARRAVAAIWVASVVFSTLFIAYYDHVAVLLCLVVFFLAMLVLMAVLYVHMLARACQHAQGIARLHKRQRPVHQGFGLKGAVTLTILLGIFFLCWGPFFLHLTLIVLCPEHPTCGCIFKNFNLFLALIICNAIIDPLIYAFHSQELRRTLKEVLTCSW
T2 sequence (P32245 whole entry): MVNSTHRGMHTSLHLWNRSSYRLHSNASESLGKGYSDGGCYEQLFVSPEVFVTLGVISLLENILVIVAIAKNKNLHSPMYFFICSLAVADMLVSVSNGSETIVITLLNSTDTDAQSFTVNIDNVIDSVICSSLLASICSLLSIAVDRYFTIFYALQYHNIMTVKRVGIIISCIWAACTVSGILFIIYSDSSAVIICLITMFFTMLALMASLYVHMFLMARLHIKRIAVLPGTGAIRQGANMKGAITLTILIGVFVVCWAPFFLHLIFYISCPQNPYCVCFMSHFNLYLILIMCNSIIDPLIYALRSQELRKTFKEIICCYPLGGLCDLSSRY

Regarding `CCNc1ccc(C2C(CNCCc3ccccc3)c3ccccc3CN2CCCC(CN)NCCc2ccc(OC)cc2)cc1` (stereo not drawn) [TRG 2411-157], the IC50 at MCR-1 (setting [1]) was determined as 110 nM; on MCR-4 (setting [2]), 0.67 µM.
For `COc1ccc(CCNCC2c3ccccc3CN(CCCCC(CN)NCc3ccc(Br)cc3)C2c2cc(C(F)(F)F)cc(C(F)(F)F)c2)cc1` (stereo not drawn) [TRG 2421-13], in that order: 4410 nM and 8.11 µM.
For `CCNc1ccc(C2C(CNCCc3ccccc3)c3ccccc3CN2CCCC(CN)NCC2CC2CNCCc2ccccc2)cc1` (stereo not drawn) [TRG 2420-8], in that order: 208 nM and 2.36 µM.
On to `NCC(N)CCCCN1Cc2ccccc2C(CNC2CCCCC2)C1c1ccc(Cl)cc1Cl` (mixture of isomers) [TRG 2414-37], for which the figures for the IC50 on MCR-1 (setting [3]) and on MCR-4 (setting [4]) were 992 nM and 1.3 µM, respectively.
For the compound `COc1cccc(CNCC2c3ccccc3CN(CCCCC(CN)NCc3ccccc3)C2c2cc(C(F)(F)F)cc(C(F)(F)F)c2)c1` (stereo not drawn) [TRG 2414-59], the IC50 at MCR-1 (setting [3]) worked out at 9640 nM; on MCR-4 (setting [4]), 6.76 µM.
Regarding `CCOc1ccccc1CNCC1c2ccccc2CN(CCCCC(N)CN)C1c1cc(C(F)(F)F)cc(C(F)(F)F)c1` (stereo not drawn) [TRG 2414-45], the IC50 on MCR-1 (setting [3]) stood at 6340 nM; on MCR-4 (setting [4]) it was 0.92 µM.
For `CCCOc1ccc(C2C(CNCc3cccc(OC)c3)c3ccccc3CN2CCCCC(CN)NCCc2ccccc2)cc1` (stereo not drawn) [TRG 2414-178], in that order: 2180 nM and 8.13 µM.
For the compound `CCCCNc1ccc(C2C(CNCCc3ccccc3)c3ccccc3CN2CCCC(CN)NCCC2CCCCC2)cc1` (stereo not drawn) [TRG 2411-200], the figures for the IC50 on MCR-1 (setting [1]) and on MCR-4 (setting [2]) were 130 nM and 1.34 µM, respectively.
Take `COc1ccccc1CCNCC1c2ccccc2CN(CCCCC(CN)NCc2ccccc2)C1c1ccc(Cl)cc1Cl` (mixture of isomers) [TRG 2414-11]: the results for the IC50 on MCR-1 (setting [3]) and at MCR-4 (setting [4]) were 1800 nM and 3.48 µM, respectively.
`NCC(CCCCN1Cc2ccccc2C(CNC2CCCCCC2)C1c1ccccc1Br)NCc1ccccc1` (stereo not drawn) [Cmpd 235]: the IC50 was determined as 2860 nM on MCR-1 (setting [5]) and 5.35 µM on MCR-4 (setting [6]).
With `NCC(CCCCN1Cc2ccccc2C(CNCCc2ccccc2)C1c1cc(C(F)(F)F)cc(C(F)(F)F)c1)NCc1ccccc1` (stereo not drawn) [TRG 2421-1], the figures for the IC50 at MCR-1 (setting [1]) and on MCR-4 (setting [2]) were 4180 nM and 1.78 µM, respectively.
Regarding `CCOc1ccccc1CNCC1c2ccccc2CN(CCCCC(CN)NCCc2ccccc2)C1c1cccc(Oc2ccccc2)c1` (stereo not drawn) [TRG 2414-86], the IC50 at MCR-1 (setting [3]) was determined as 11800 nM; at MCR-4 (setting [4]), 16.2 µM.
Take `CCCOc1ccc(C2C(CNCc3ccccc3O)c3ccccc3CN2CC(CN)NC)cc1` (stereo not drawn) [TRG 2406-15]: the IC50 on MCR-1 (setting [7]) was determined as 7220 nM; at MCR-4 (setting [7]) it was 2.75 µM.
In the case of `CNCCNC(CN)CCN1Cc2ccccc2C(CNC2CCCCC2)C1c1ccc(-c2ccccc2)cc1` (mixture of isomers) [TRG 2408-114], the figures for the IC50 on MCR-1 (setting [8]) and on MCR-4 (setting [8]) were 3240 nM and 10.5 µM, respectively.
As to `CCNc1ccc(C2C(CNc3ccc(OC)cc3)c3ccccc3CN2CCCCC(CN)NC)cc1` (stereo not drawn) [TRG 2407-49], the IC50 at MCR-1 (setting [7]) was determined as 2360 nM. For the same compound, on MCR-4 (setting [7]), the “MC-4 IC50” value is “no fit”.
As for `NCCN1Cc2ccccc2C(CNCc2ccccc2O)C1c1ccc(Oc2ccccc2)cc1` (mixture of isomers) [TRG 2406-11], the IC50 on MCR-1 (setting [7]) is 10500 nM; at MCR-4 (setting [7]), 7 µM.
As for `NCC(CCCCN1Cc2ccccc2C(CNC2CCCCC2)C1c1ccc(Oc2ccccc2)cc1)NCCc1ccccc1` (mixture of isomers) [TRG 2414-158], the IC50 on MCR-1 (setting [3]) is 2740 nM; on MCR-4 (setting [4]), 6.71 µM.
As for `COc1ccc(CCNCC2c3ccccc3CN(CCCCC(CN)NCCc3ccccc3)C2c2cccc(Oc3ccccc3)c2)cc1` (stereo not drawn) [TRG 2414-106], the IC50 at MCR-1 (setting [3]) is 12900 nM; on MCR-4 (setting [4]) it was 10 µM.
As to `CCCOc1ccc(C2C(CNCCc3ccccc3OC)c3ccccc3CN2CCCCC(N)CN)cc1` (stereo not drawn) [Cmpd 277], the “MC-1 IC50” value at MCR-1 (setting [5]) is “no fit”. Also, at MCR-4 (setting [6]), the “MC-4 IC50” value is recorded as “no fit”.
With `CNC(CN)CCCCN1Cc2ccccc2C(CNc2ccc(Cl)cc2)C1c1ccc(Cl)cc1Cl` (stereo not drawn) [TRG 2407-8], the values for the IC50 at MCR-1 (setting [7]) and on MCR-4 (setting [7]) were 10900 nM and 21.2 µM, respectively.
Take `COc1cccc(CNCC2c3ccccc3CN(CCCCC(CN)NCC(C)c3ccc(CC(C)C)cc3)C2c2cccc(Oc3ccccc3)c2)c1` (stereo not drawn) [TRG 2414-100]: the “MC-1 IC50” value at MCR-1 (setting [3]) is recorded as “no fit”. Also, the “MC-4 IC50” value on MCR-4 (setting [4]) is on record as “no fit”.
On to `CCNc1ccc(C2C(CNCCc3ccccc3)c3ccccc3CN2CCCC(CN)NCc2ccc(OC)cc2)cc1` (stereo not drawn) [TRG 2411-160], for which the values for the half-inhibitory concentration (IC50) on MCR-1 (setting [1]) and at MCR-4 (setting [2]) were 90 nM and 0.51 µM, respectively.
In the case of `CC(C)Cc1ccc(C(C)CNC(CN)CCCCN2Cc3ccccc3C(CNCc3ccccc3)C2c2ccc(Oc3ccccc3)cc2)cc1` (stereo not drawn) [TRG 2414-152], on MCR-1 (setting [3]), the “MC-1 IC50” value is given as “no fit”. On MCR-4 (setting [4]), the “MC-4 IC50” value is given as “no fit”.
As for `NCCN1Cc2ccccc2C(CNCc2ccccc2O)C1c1cccc(Oc2ccccc2)c1` (stereo not drawn) [TRG 2406-8], the IC50 worked out at 7480 nM at MCR-1 (setting [7]) and 5.67 µM at MCR-4 (setting [7]).
Take `CC(C)Cc1ccc(C(C)CNC(CN)CCCCN2Cc3ccccc3C(CNC3CCCCC3)C2c2cc(C(F)(F)F)cc(C(F)(F)F)c2)cc1` (stereo not drawn) [TRG 2414-80]: the results for the IC50 at MCR-1 (setting [3]) and on MCR-4 (setting [4]) were 23700 nM and 27 µM, respectively.
For `NCC(N)CCCCN1Cc2ccccc2C(CNCc2ccccc2)C1c1ccc(Oc2ccccc2)cc1` (stereo not drawn) [TRG 2414-149], in that order: 2860 nM and 2.69 µM.
Consider `COc1ccc(CNCC2c3ccccc3CN(CCCCC(N)CN)C2c2cccc(Oc3ccccc3)c2)cc1` (stereo not drawn) [TRG 2414-101], for which the IC50 at MCR-1 (setting [3]) came to 2500 nM; on MCR-4 (setting [4]), 1.26 µM.
Turning to `NCC(N)CCCN1Cc2ccccc2C(CNC2CCCCC2)C1c1ccc(-c2ccccc2)cc1` (stereo not drawn) [TRG 2408-81], the figures for the IC50 on MCR-1 (setting [8]) and on MCR-4 (setting [8]) were 4410 nM and 18 µM, respectively.
In the case of `CCCCOc1ccc(C2C(CNCCc3ccccc3)c3ccccc3CN2CCCC(CN)NC)cc1` (stereo not drawn) [TRG 2412-25], the 50% inhibitory concentration (IC50) was 160 nM on MCR-1 (setting [1]) and 1.06 µM on MCR-4 (setting [2]).
For `CC(C)Oc1ccc(C2C(CO)c3ccccc3CN2CCCC(CN)NCCC2CCCCC2)cc1` (stereo not drawn) [TRG 2415-5], in that order: 2520 nM and 0.96 µM.
`CCNc1ccc(C2C(CNc3ccc(Cl)cc3)c3ccccc3CN2CCCCC(CN)NC)cc1` (stereo not drawn) [TRG 2407-48]: the IC50 at MCR-1 (setting [7]) was 4480 nM; on MCR-4 (setting [7]) it was 10.8 µM.
For `CNC(CN)CCCCN1Cc2ccccc2C(CNCCc2cccc(Cl)c2)C1c1ccc(Cl)cc1Cl` (mixture of isomers) [TRG 2407-24], in that order: 1790 nM and 0.8 µM.
In the case of `CCOc1ccccc1CNCC1c2ccccc2CN(CCCCC(CN)NCCc2ccccc2)C1c1cc(C(F)(F)F)cc(C(F)(F)F)c1` (stereo not drawn) [TRG 2414-46], the IC50 is 6540 nM on MCR-1 (setting [3]) and 4.25 µM on MCR-4 (setting [4]).
Take `CCCOc1ccc(C2C(CNC3CCCCC3)c3ccccc3CN2CCCCC(CN)NCCc2ccccc2)cc1` (stereo not drawn) [Cmpd 198]: the IC50 on MCR-1 (setting [5]) was found to be 3000 nM; at MCR-4 (setting [6]), 3.68 µM.
`CNC(C)CNC(CN)CCCCN1Cc2ccccc2C(CN)C1c1ccc(-c2ccccc2)cc1` (mixture of isomers) [TRG 2411-28]: the IC50 at MCR-1 (competition with 125I-HP 467, HEK 293 cells expressing MCR-1) was determined as 560 nM; on MCR-4 (competition with 125I-HP 467, HEK 293 cells expressing MCR-4) it was 1.23 µM.
As for `NCCN1Cc2ccccc2C(CNC2CCCCC2)C1c1ccc([N+](=O)[O-])o1` (stereo not drawn) [TRG 2405-80], the IC50 amounted to 8660 nM on MCR-1 (TRG 2405 section, inhibition of binding of 125I-HP 467, HEK 293 cells expressing MCR-1) and 20.8 µM at MCR-4 (TRG 2405 section, inhibition of binding of 125I-HP 467, HEK 293 cells expressing MCR-4). Also, the “% Disp. MC-1 10 μM” value stood at 30.8% on MCR-1 (first of duplicate) and 52.9% on MCR-1 (second of duplicate).
With `CCOc1ccccc1CNCC1c2ccccc2CN(CCCCC(CN)NCC(C)c2ccc(CC(C)C)cc2)C1c1cc(C(F)(F)F)cc(C(F)(F)F)c1` (stereo not drawn) [TRG 2414-48], the IC50 on MCR-1 (setting [3]) stood at 33500 nM; on MCR-4 (setting [4]), 38.8 µM.
As for `CCCCNc1ccc(C2C(CNCCc3ccccc3)c3ccccc3CN2CCCC(CN)NCCc2ccc(Br)cc2)cc1` (stereo not drawn) [TRG 2411-194], the figures for the 50% inhibitory concentration (IC50) on MCR-1 (setting [1]) and at MCR-4 (setting [2]) were 240 nM and 1.36 µM, respectively.
With `CNC(CN)CCCCN1Cc2ccccc2C(CNN2CCCCC2)C1c1ccc(Cl)cc1Cl` (mixture of isomers) [TRG 2407-34], the IC50 at MCR-1 (setting [7]) came out at 3970 nM; on MCR-4 (setting [7]), 2.01 µM.
As for `CCCOc1ccc(C2C(CNCCc3ccccc3OC)c3ccccc3CN2CCCCC(CN)NCc2ccccc2)cc1` (stereo not drawn) [TRG 2414-171], the IC50 came out at 1100 nM at MCR-1 (setting [3]) and 4.8 µM at MCR-4 (setting [4]).
For `CCNc1ccc(C2C(CNCCc3ccccc3)c3ccccc3CN2CCCC(CN)NCC2CC2CNC(C)C)cc1` (stereo not drawn) [TRG 2420-5], the values for the IC50 at MCR-1 (setting [1]) and on MCR-4 (setting [2]) were 43 nM and 9.88 µM, respectively.
